Among the data in patent US20260234124A1, “Substituted Pyrazolyl-Pyridinyl Compounds as Ligand Directed Degraders of IRAK3” (Celgene Corporation, priority 2022, published 2026) are Dmax and DC50 values, retold here.

Molecules are shown by their SMILES.

This experiment addresses T1, IRAK3-ePL (Homo sapiens, UniProt Q9Y616).
T1 construct: expressed in transfected cells; host or cells: 293T CRBN OE/GSPT1 G575N KI cells, lentiviral transduction, puromycin selection
Put plainly: IRAK3-ePL overexpressing degradation assay. In kind it is cell-based. The conditions noted are these: IRAK3-ePL Lenti-X 293T CRBN/GSPT1 G575N cells, overnight incubation, top dose 10 μM; for Dmax: HEK-293T, maximum percentage loss of target protein; for DC50: read-out: IRAK3 ePL degradation EC50. The protocol:
Example B1. IRAK3-ePL Overexpressing Degradation Assay
Stable cell lines were generated by the following protocol. 3×10^5 Lenti-X 293T cells (Clonetech) were plated in 0.8 mL of media in a 12-well plate and incubated overnight at 37° C./5% CO2. Packaging plasmid (0.4 μg, pMD), envelope plasmid (0.4 μg, pSP), and lentiviral transfer IRAK3-ePL plasmid (0.8 μg, IRAK3 sequence NM_007199.3) were mixed in 0.1 mL of Opti-MEM and incubated for 5 min. Simultaneously, 2.4 μL of Lipofectamine 2000 (Invitrogen) was added to 0.1 mL of Opti-MEM (Gibco) and incubated for 5 min. The plasmid DNA and lipofectamine were combined and the mixture was allowed to incubate for 20 min. DNA:Lipofectamine Opti-MEM mixtures were then added to previously plated cells dropwise and the cells were incubated for ~16 h at 37° C./5% CO2. Following incubation, the media was removed and 1.2 mL of fresh media was added per well. Lenti-X 293T cells were incubated for ~30 h at 37° C./5% CO2. […] Following incubation, media was removed from the Lenti-X 293T wells and passed through a […]. Part of the viral supernatant was used to transduce cells and the rest was stored at −80° C. Viruses were then added individually (0.5 mL virus) to each well of the 293T^CRBN OE/GSPT1 G575N KI cells, followed by addition of polybrene (10 mg/mL Millipore) to each well at a final concentration of 5.0 μg/mL. Cells were incubated for ~24 h at 37° C./5% CO2. After aspirating media off plates, cells were washed with DPBS, trypsinized and plated in a 10 cm dish in 15 mL of media and 1 μg/mL puromycin. Following incubation of cells for ~72 h at 37° C./5% CO2, media was aspirated off plates, and cells were washed with DPBS and trypsinized. The cells were plated in a 15 cm dish in 40 mL of media with 1.0 μg/mL Puromycin (Gibco) and incubated for ~72 h at 37° C./5% CO2. Following incubation, media was removed and cells were washed with DPBS and trypsinized. The majority of cells were resuspended in Invitrogen freezing media and stored away (~6-8×10^6 cells/vial).
IRAK3-ePL cellular dose response curve degradation assays were performed by the following protocol. Compounds to be tested were dispensed into a white 384-well tissue-culture treated plate using an acoustic liquid handler. Dilutions were prepared based on a 25 μL assay volume in duplicate 10 point 3-fold serial dilutions starting with a 10 μM dose. Negative control wells were included, which only contain 0.2% DMSO to calculate 100% signal. Positive control wells containing 30 μM Ataluren (luciferase inhibitor) were included to calculate the background signal level. All wells were backfilled to a final DMSO concentration of 0.2% to ensure DMSO uniformity across wells. IRAK3-ePL expressing cells (IRAK3-ePL Lenti-X 293T^CRBN/GSPT1 G575N) were washed, trypsinized, counted, and resuspended in fresh DMEM (Gibco) to give a cell concentration of 200,000 cells/mL. 25 μL of cells (5,000 cells/well) were dispensed into the wells of the 384-well plate prespotted with compounds in the previous step and incubated overnight at 37° C./5% CO2. Following incubation, the 384-well plate was taken out of the incubator and left at room temperature for 30 min. InCELL hunter reagent was prepared according to manufacturer's instructions (EA reagent, lysis buffer, and substrate reagent in a 1:1:4 ratio, Cat #96-0002, DiscoverX), which was added to the 384-well plate 25 μL per well. Following the incubation of the plate for 1 h at room temperature, the luminescence signal was read using a ViewLux plate reader. Data was processed and analyzed in ActivityBase software. In short, the average luminescence values of the positive control wells were subtracted from the rest of the wells for background correction, and all luminescence values were normalized to the DMSO control wells. The average value of the DMSO control wells was set to equal 100% of the relative IRAK3-ePL protein levels. […]

One may read the Dmax as the greatest extent of degradation seen. Read a high Dmax as a fuller loss of target.

On to `C[C@@H](Oc1cc(-c2cnn(C3CCN(CCOCCOCCOCCNC(=O)COc4cccc5c4C(=O)N(C4CCC(=O)NC4=O)C5=O)CC3)c2)cnc1N)c1c(Cl)ccc(F)c1Cl` (stereo partly drawn) [Compound 11, N-(2-(2-(2-(2-(4-(4-(6-amino-5-((R)-1-(2,6-dichloro-3-fluorophenyl)ethoxy)pyridin-3-yl)-1H-pyrazol-1-yl)piperidin-1-yl)ethoxy)ethoxy)ethoxy)ethyl)-2-((2-(2,6-dioxopiperidin-3-yl)-1,3-dioxoisoindolin-4-yl)oxy)acetamide], for which the Dmax is 12% and the DC50 was greater than 10 µM.

As for `C[C@@H](Oc1cc(-c2cnn(C3CCN(CCOCCOCCOCCOCCNC(=O)COc4cccc5c4C(=O)N(C4CCC(=O)NC4=O)C5=O)CC3)c2)cnc1N)c1c(Cl)ccc(F)c1Cl` (stereo partly drawn) [Compound 12, N-(14-(4-(4-(6-amino-5-((R)-1-(2,6-dichloro-3-fluorophenyl)ethoxy)pyridin-3-yl)-1H-pyrazol-1-yl)piperidin-1-yl)-3,6,9,12-tetraoxatetradecyl)-2-((2-(2,6-dioxopiperidin-3-yl)-1,3-dioxoisoindolin-4-yl)oxy)acetamide], the Dmax was 30% and the DC50 is greater than 10 µM.

As for `C[C@@H](Oc1cc(-c2cnn(C3CCN(C4CCC5(CC4)CCN(C(=O)c4ccc6c(c4)C(=O)N(C4CCC(=O)NC4=O)C6)CC5)CC3)c2)cnc1N)c1c(Cl)ccc(F)c1Cl` (stereo partly drawn) [Compound 19, 3-(6-(9-(4-(4-(6-amino-5-((R)-1-(2,6-dichloro-3-fluorophenyl)ethoxy)pyridin-3-yl)-1H-pyrazol-1-yl)piperidin-1-yl)-3-azaspiro[5.5]undecane-3-carbonyl)-1-oxoisoindolin-2-yl)piperidine-2,6-dione], the Dmax worked out at 36% and the DC50 was greater than 10 µM.

In the case of `Cc1ncsc1-c1ccc(CNC(=O)[C@@H]2C[C@@H](O)CN2C(=O)[C@@H](NC(=O)CCCN2CCC(n3cc(-c4cnc(N)c(O[C@H](C)c5c(Cl)ccc(F)c5Cl)c4)cn3)CC2)C(C)(C)C)cc1` [Compound 1, (2S,4R)-1-((S)-2-(4-(4-(4-(6-amino-5-((R)-1-(2,6-dichloro-3-fluorophenyl)ethoxy)pyridin-3-yl)-1H-pyrazol-1-yl)piperidin-1-yl)butanamido)-3,3-dimethylbutanoyl)-4-hydroxy-N-(4-(4-methylthiazol-5-yl)benzyl)pyrrolidine-2-carboxamide], the Dmax amounted to 8% and the DC50 is greater than 10 µM.

For the compound `C[C@@H](Oc1cc(-c2cnn(C3CCN(C4CCC5(CC4)CCN(C(=O)c4ccc6c(c4)CN(C4CCC(=O)NC4=O)C6=O)CC5)CC3)c2)cnc1N)c1c(Cl)ccc(F)c1Cl` (stereo partly drawn) [Compound 20, 3-(5-(9-(4-(4-(6-amino-5-((R)-1-(2,6-dichloro-3-fluorophenyl)ethoxy)pyridin-3-yl)-1H-pyrazol-1-yl)piperidin-1-yl)-3-azaspiro[5.5]undecane-3-carbonyl)-1-oxoisoindolin-2-yl)piperidine-2,6-dione], the Dmax came to 74% and the DC50 stood at 0.055 µM.

For the compound `Cc1ncsc1-c1ccc(CNC(=O)[C@@H]2C[C@@H](O)CN2C(=O)[C@@H](NC(=O)COCCOCCOCCOCCOCCOCCN2CCC(n3cc(-c4cnc(N)c(O[C@H](C)c5c(Cl)ccc(F)c5Cl)c4)cn3)CC2)C(C)(C)C)cc1` [Compound 6, (2S,4R)-1-((S)-23-(4-(4-(6-amino-5-((R)-1-(2,6-dichloro-3-fluorophenyl)ethoxy)pyridin-3-yl)-1H-pyrazol-1-yl)piperidin-1-yl)-2-(tert-butyl)-4-oxo-6,9,12,15,18,21-hexaoxa-3-azatricosanoyl)-4-hydroxy-N-(4-(4-methylthiazol-5-yl)benzyl)pyrrolidine-2-carboxamide], the Dmax came to 25% and the DC50 was greater than 10 µM.

Turning to `Cc1ncsc1-c1ccc(CNC(=O)[C@@H]2C[C@@H](O)CN2C(=O)[C@@H](NC(=O)COCCOCCOCCN2CCC(n3cc(-c4cnc(N)c(O[C@H](C)c5c(Cl)ccc(F)c5Cl)c4)cn3)CC2)C(C)(C)C)cc1` [Compound 3, (2S,4R)-1-((S)-14-(4-(4-(6-amino-5-((R)-1-(2,6-dichloro-3-fluorophenyl)ethoxy)pyridin-3-yl)-1H-pyrazol-1-yl)piperidin-1-yl)-2-(tert-butyl)-4-oxo-6,9,12-trioxa-3-azatetradecanoyl)-4-hydroxy-N-(4-(4-methylthiazol-5-yl)benzyl)pyrrolidine-2-carboxamide], the Dmax came out at 13% and the DC50 was greater than 10 µM.

Regarding `C[C@@H](Oc1cc(-c2cnn(C3CCN(CCOCCOCCOCCNC(=O)COc4ccc5c(c4)C(=O)N(C4CCC(=O)NC4=O)C5=O)CC3)c2)cnc1N)c1c(Cl)ccc(F)c1Cl` (stereo partly drawn) [Compound 16, N-(2-(2-(2-(2-(4-(4-(6-amino-5-((R)-1-(2,6-dichloro-3-fluorophenyl)ethoxy)pyridin-3-yl)-1H-pyrazol-1-yl)piperidin-1-yl)ethoxy)ethoxy)ethoxy)ethyl)-2-((2-(2,6-dioxopiperidin-3-yl)-1,3-dioxoisoindolin-5-yl)oxy)acetamide], the Dmax amounted to 19% and the DC50 was greater than 10 µM.

In the case of `C[C@@H](Oc1cc(-c2cnn(C3CCN(CCNC(=O)COc4ccc5c(c4)C(=O)N(C4CCC(=O)NC4=O)C5=O)CC3)c2)cnc1N)c1c(Cl)ccc(F)c1Cl` (stereo partly drawn) [Compound 13, N-(2-(4-(4-(6-amino-5-((R)-1-(2,6-dichloro-3-fluorophenyl)ethoxy)pyridin-3-yl)-1H-pyrazol-1-yl)piperidin-1-yl)ethyl)-2-((2-(2,6-dioxopiperidin-3-yl)-1,3-dioxoisoindolin-5-yl)oxy)acetamide], the Dmax amounted to 70% and the DC50 is 0.173 µM.

Consider `C[C@@H](Oc1cc(-c2cnn(C3CCN(CCOCCNC(=O)COc4cccc5c4C(=O)N(C4CCC(=O)NC4=O)C5=O)CC3)c2)cnc1N)c1c(Cl)ccc(F)c1Cl` (stereo partly drawn) [Compound 9, N-(2-(2-(4-(4-(6-amino-5-((R)-1-(2,6-dichloro-3-fluorophenyl)ethoxy)pyridin-3-yl)-1H-pyrazol-1-yl)piperidin-1-yl)ethoxy)ethyl)-2-((2-(2,6-dioxopiperidin-3-yl)-1,3-dioxoisoindolin-4-yl)oxy)acetamide], for which the Dmax was determined as 12% and the DC50 is greater than 10 µM.

With `Cc1ncsc1-c1ccc(CNC(=O)[C@@H]2C[C@@H](O)CN2C(=O)[C@@H](NC(=O)COCCOCCOCCOCCOCCOCCOCCN2CCC(n3cc(-c4cnc(N)c(O[C@H](C)c5c(Cl)ccc(F)c5Cl)c4)cn3)CC2)C(C)(C)C)cc1` [Compound 7, (2S,4R)-1-((S)-26-(4-(4-(6-amino-5-((R)-1-(2,6-dichloro-3-fluorophenyl)ethoxy)pyridin-3-yl)-1H-pyrazol-1-yl)piperidin-1-yl)-2-(tert-butyl)-4-oxo-6,9,12,15,18,21,24-heptaoxa-3-azahexacosanoyl)-4-hydroxy-N-(4-(4-methylthiazol-5-yl)benzyl)pyrrolidine-2-carboxamide], the Dmax was determined as 38% and the DC50 is greater than 10 µM.
